Laboratory results reported in patent US20240425966A1, “GAS-ASSISTED COCRYSTAL DE-SUBLIMATION” (THE REGENTS OF THE UNIVERSITY OF MICHIGAN, priority 2021, published 2024).

Assays:
[1] = Thermogravimetric analysis (TGA), enthalpy of sublimation from Arrhenius plot of mass loss rate; type: physicochemical; conditions: for Sublimation ΔHsub: 25-400° C., 10° C. per minute, slope of log mass loss rate versus 1000/T; for Sublimation Tlow: lower temperature of sublimation range; for Sublimation Thigh: upper temperature of sublimation range
Method: (§1) To determine optimal process temperature, differential scanning calorimetry (DSC) and thermogravimetric analysis (TGA) were performed on the pure components, as well as on the cocrystal, shown in FIG. 2. A TA instruments DSC Q200 was used with a 40-400° C. heating range and 10° C. per minute heating rate. Only initial heating curves were collected and analyzed, without a cooling and secondary heating step. The initial melting peak temperature and enthalpy of melting values for each sample was determined using Universal Analysis software from TA instruments. A TA Instruments TGA Q500 was used with a 25-400° C. heating range and a 10° C. per minute heating rate. Powder was placed into a 5 mm diameter aluminum sample pan centered in a platinum hang pan. Enthalpies of sublimation were determined by plotting the logarithm of mass loss rate (−dm/dt) versus inverse temperature (1000/T).

[2] = Differential scanning calorimetry (DSC), enthalpy of melting; type: physicochemical; conditions: 40-400° C., 10° C. per minute, initial heating curve
Method: as §1

[3] = Thermal stability (decomposition temperature); type: physicochemical; conditions: heating
From the text: Thermal analysis provides a good basis to determine the process window for successful cocrystal de-sublimation. The target temperature for the process is preferably in a region where sublimed API and conformer readily remain in the vapor phase. Too low, and the less volatile compound may de-sublimate within the heated tube, altering the ratio of API to conformer reaching a cooled surface (26). Moreover, decreasing temperature reduces sublimation rate and thus restricts the amount of material that can be processed. The upper temperature limit of the process is largely dictated by the thermal stability of each component. For example, CBZ may begin to decompose appreciably before reaching 180° C., limiting the heating temperature to well below its melting temperature. […] On the other hand, IND is stable up to 248° C., well above its melting temperature (27).

[4] = heating; reference (27); cited from earlier work

Row | Compound | Sublimation ΔHsub [1] [kcal/mol] | Sublimation Tlow [1] [°C] | Sublimation Thigh [1] [°C] | Melting ΔHmelt [2] [kcal/mol] | temperature before which decomposition may begin appreciably [3] [°C] | stable up to (temperature) [4] [°C]
1 | O=C1NS(=O)(=O)c2ccccc21 [SAC, saccharine] | 25.57 | 200 | 290 | 8.68 | – | –
2 | NC(=O)N1c2ccccc2C=Cc2ccccc21 [CBZ, carbamazepine] | 48.59 | 220 | 280 | 6.33 | < 180 | –
3 | O=C(O)CCC(=O)O [SUC, succinic acid] | 23.1 | 140 | 230 | 7.89 | – | –
4 | COc1ccc2c(c1)c(CC(=O)O)c(C)n2C(=O)c1ccc(Cl)cc1 [IND, indomethacin] | 27.29 | 200 | 320 | 8.01 | – | 248
